According to ChEMBL document CHEMBL1201862, “PubChem BioAssay data set” (2004):
Calls of active or inactive are those of the source.

Assays:
[1] = target: T1, SUMO-activating enzyme (Homo sapiens, UniProt Q9UBT2); experiment: inhibitors of in vitro SUMOylation cascade, primary screen, biochemical, HTRF, uHTS (AID 2006); assay type: protein-complex assay
[2] = target: T2, Mannose-6-phosphate isomerase (Homo sapiens, UniProt P34949); experiment: human PMI inhibitors, high substrate, primary screen, biochemical, fluorescence intensity, high mannose 6-phosphate (AID 1220)
T2 sequence (P34949 whole entry): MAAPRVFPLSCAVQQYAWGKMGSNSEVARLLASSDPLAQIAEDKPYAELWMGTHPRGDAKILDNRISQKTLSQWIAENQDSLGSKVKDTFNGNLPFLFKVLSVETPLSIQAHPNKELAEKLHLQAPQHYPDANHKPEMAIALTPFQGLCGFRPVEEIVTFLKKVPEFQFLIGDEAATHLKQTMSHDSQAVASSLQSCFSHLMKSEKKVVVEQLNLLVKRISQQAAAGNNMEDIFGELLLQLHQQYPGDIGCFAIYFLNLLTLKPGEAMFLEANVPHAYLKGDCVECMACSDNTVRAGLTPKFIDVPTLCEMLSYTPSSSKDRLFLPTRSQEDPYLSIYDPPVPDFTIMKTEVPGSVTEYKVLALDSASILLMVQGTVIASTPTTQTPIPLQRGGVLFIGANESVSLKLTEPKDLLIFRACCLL

[3] = target: T3, Sentrin-specific protease 8 (Homo sapiens, UniProt Q96LD8); assay type: functional
T3 sequence (Q96LD8 whole entry): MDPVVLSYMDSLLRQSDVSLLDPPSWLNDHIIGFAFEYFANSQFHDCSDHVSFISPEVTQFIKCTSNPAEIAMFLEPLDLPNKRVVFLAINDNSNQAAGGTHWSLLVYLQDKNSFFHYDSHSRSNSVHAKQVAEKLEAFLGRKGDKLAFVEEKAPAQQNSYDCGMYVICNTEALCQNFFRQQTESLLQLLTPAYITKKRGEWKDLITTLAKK

[4] = target: Beta-galactosidase (Escherichia coli, UniProt Q8VNN2); experiment: PubChem AID 485352; assay type: functional
[5] = target: T3, Sentrin-specific protease 8; assay type: functional; remark: listed apart in the source
[6] = target: T4, Type-1 angiotensin II receptor (Homo sapiens, UniProt P30556); experiment: AT1 receptor antagonists, dose response, selectivity assay for APJ receptor antagonist project, cell-based, uHTS hits (AID 463214); assay type: functional;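 further: antagonist potency against angiotensin II stimulated AT1 response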
T4 sequence (P30556 whole entry): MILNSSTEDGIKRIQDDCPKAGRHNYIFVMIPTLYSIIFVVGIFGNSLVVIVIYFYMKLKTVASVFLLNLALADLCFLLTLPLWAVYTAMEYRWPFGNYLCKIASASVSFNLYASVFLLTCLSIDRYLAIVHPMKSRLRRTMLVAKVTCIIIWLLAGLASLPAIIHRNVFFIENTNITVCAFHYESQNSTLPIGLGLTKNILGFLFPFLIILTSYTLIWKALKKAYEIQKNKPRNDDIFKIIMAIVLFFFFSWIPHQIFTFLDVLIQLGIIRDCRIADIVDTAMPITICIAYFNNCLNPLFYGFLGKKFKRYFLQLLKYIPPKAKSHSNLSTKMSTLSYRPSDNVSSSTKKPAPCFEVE

[7] = target: T1, SUMO-activating enzyme; experiment: SUMOylation inhibitor hit validation, confirmation, SUMOylation inhibitor project, biochemical, AlphaScreen (AID 2018); assay type: functional
[8] = target: T5, Replicative DNA helicase DnaB (Mycobacterium tuberculosis, UniProt P9WMR3); experiment: DnaB intein splicing inhibitors, dose response, biochemical, cell-free fluorescence (AID 449749); assay type: functional
T5 sequence (P9WMR3 whole entry): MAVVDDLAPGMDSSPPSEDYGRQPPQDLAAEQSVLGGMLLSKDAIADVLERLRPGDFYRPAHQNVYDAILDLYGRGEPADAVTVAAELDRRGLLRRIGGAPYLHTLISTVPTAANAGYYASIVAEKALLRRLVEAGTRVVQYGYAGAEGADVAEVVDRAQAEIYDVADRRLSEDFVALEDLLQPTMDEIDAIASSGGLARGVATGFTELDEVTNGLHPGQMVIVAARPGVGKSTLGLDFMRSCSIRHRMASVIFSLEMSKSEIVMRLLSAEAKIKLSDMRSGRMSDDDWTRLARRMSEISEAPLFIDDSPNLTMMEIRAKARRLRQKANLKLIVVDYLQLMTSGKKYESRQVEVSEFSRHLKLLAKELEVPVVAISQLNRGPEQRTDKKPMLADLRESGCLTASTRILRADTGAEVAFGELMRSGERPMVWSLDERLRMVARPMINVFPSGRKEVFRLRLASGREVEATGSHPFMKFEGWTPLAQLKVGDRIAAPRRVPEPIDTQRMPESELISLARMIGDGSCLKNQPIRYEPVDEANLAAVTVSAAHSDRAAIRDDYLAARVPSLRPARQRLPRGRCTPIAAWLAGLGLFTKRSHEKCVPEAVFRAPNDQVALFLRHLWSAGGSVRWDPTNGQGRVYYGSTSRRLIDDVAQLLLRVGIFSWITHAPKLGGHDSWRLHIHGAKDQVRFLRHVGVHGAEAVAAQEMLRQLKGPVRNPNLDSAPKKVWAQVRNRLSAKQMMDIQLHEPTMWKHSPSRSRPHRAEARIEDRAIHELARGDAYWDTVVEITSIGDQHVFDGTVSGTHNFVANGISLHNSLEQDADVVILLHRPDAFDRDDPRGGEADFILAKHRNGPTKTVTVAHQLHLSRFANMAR

[9] = tested on: Vero; experiment: Vero cell cytotoxicity, cytotoxicity control for flavivirus capping enzyme inhibitors (AID 588742); assay type: functional; conditions: Chlorocebus sabaeus
[10] = tested on: Vero; experiment: cells; assay type: functional, cell-based; conditions: Chlorocebus sabaeus
[11] = tested on: Vero; experiment: cells; assay type: functional; conditions: Chlorocebus sabaeus
[12] = microbe, parasite or virus in culture; assay type: functional; conditions: Mycobacterium tuberculosis
[13] = target: T6, Protein RecA (Mycobacterium tuberculosis, UniProt P9WHJ3); experiment: Fluorescence Cell-Free Homogeneous Dose Retest to Identify Inhibitors of RecA-Intein Splicing Activity. [Related pubchem assays (depositor defined):AID2097, AID2223, AID489010, AID492950]; assay type: functional
T6 sequence (P9WHJ3 whole entry): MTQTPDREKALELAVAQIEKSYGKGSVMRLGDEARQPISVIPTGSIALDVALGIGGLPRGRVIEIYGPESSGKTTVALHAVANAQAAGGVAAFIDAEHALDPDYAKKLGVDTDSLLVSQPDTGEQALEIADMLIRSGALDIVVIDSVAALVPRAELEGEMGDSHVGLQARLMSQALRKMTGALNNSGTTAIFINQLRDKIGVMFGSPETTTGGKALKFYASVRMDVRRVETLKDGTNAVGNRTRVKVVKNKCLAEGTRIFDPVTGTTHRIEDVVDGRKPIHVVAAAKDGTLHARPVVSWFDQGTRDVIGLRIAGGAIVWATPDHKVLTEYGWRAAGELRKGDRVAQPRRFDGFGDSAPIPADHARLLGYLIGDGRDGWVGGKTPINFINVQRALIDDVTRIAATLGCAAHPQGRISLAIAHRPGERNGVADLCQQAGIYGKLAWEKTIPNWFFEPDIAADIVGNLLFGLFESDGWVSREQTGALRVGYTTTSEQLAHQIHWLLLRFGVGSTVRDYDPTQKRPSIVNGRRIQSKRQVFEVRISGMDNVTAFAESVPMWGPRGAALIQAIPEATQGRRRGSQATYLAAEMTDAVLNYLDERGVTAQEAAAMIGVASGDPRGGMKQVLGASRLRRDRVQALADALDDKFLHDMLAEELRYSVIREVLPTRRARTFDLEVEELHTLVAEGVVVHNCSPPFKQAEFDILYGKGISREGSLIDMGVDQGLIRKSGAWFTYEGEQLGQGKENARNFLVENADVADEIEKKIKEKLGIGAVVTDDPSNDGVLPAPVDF

[14] = HEp-2 cell cytotoxicity, dose response, cytotoxicity control for RSV inhibitor project, HTS (AID 2410); assay type: functional; conditions: human respiratory syncytial virus
[15] = cells
[16] = cytotoxicity toward NIH3T3 fibroblasts, dose response, counter-screen, cell-based, ATP luminescence, mouse fibroblasts (AID 2010); assay type: functional;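 further: cells exposed to compound for about 90 hours before reading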
[17] = insulin promoter down-regulators in MIN6 cells, imaging, high-content screening, mouse beta cells (AID 1628); assay type: functional
[18] = cytotoxicity in MIN6 insulinoma cells, dose response, cytotoxicity control, cell-based, mouse insulinoma (AID 2122); assay type: functional;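 further: confirmatory high-throughput counterscreen run to flag cytotoxic compounds; mouse MIN-6 beta cells carrying an insulin promoter eGFP reporter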
[19] = inhibitors of intracellular T. cruzi replication, confirmation, NIH3T3 host cells, beta-gal luminescence (AID 2044); assay type: functional, cell-based;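 further: intracellular parasites grown in NIH/3T3 mouse fibroblasts as host cells; luminescent beta-galactosidase reporter signal from transgenic T. cruzi replicating inside host cells; inhibitors lower the luminescence signal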

T1 sequence (Q9UBE0 whole entry): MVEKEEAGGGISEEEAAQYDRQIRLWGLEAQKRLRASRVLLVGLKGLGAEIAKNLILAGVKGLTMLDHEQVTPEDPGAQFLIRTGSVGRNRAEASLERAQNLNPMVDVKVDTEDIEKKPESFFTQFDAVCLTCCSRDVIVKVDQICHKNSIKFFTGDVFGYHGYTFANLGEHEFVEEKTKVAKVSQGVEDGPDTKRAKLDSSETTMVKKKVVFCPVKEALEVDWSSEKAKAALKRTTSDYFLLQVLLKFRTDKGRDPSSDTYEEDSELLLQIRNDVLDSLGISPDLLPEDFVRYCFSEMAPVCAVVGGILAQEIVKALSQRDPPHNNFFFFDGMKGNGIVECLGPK
T1 sequence (Q9UBT2 whole entry): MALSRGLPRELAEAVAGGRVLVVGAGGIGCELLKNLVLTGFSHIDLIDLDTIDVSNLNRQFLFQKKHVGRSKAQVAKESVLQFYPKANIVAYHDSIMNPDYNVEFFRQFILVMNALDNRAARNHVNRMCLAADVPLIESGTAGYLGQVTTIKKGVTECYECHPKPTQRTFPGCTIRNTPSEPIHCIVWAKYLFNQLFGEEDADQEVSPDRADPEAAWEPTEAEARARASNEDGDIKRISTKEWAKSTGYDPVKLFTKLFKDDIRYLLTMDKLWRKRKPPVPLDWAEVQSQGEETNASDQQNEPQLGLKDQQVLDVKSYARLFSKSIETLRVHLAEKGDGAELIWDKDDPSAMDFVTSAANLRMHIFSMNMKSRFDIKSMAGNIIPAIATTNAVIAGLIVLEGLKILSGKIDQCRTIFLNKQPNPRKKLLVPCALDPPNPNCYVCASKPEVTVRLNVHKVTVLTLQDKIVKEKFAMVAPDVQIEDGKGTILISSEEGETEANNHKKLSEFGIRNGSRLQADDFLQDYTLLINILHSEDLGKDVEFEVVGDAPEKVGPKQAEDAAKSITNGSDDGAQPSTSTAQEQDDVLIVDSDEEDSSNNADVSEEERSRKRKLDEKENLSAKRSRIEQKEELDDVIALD
Sequence of Beta-galactosidase (Q8VNN2 whole entry): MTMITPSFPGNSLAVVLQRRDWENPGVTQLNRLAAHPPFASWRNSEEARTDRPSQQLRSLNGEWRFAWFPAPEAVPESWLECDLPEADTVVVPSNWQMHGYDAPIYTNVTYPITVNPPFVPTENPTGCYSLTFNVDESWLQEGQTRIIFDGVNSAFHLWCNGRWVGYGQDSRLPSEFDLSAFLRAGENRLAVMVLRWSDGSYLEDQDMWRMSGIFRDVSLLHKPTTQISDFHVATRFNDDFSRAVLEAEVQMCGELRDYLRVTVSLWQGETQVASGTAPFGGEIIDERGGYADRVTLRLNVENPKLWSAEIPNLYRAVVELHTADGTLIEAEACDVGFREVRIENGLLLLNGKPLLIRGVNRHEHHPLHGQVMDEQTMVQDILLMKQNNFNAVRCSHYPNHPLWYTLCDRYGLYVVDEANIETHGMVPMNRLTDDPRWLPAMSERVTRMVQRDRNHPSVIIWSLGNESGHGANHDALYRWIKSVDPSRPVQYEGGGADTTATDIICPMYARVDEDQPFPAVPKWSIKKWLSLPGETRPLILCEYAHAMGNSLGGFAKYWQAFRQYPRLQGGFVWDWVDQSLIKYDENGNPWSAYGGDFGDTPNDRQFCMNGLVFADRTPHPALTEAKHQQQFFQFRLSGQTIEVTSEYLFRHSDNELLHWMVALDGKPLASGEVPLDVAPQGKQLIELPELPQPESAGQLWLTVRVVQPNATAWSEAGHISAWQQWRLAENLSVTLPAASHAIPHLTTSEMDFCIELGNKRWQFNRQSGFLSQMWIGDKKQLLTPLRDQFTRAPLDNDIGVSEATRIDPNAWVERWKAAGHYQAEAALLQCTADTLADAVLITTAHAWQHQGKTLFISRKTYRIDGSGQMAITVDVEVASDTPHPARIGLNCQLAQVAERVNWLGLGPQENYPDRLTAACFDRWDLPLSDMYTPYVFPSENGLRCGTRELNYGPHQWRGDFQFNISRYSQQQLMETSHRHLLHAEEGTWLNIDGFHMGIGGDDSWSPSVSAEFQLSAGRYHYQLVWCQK

Compound: O=C1Nc2ccc([N+](=O)[O-])cc2C1=Nc1cccc(CO)c1
- IC50 [1]: 18.7 µM (active)
- IC50 [2]: 12.4 µM (active)
- IC50 [3]: 7.06 µM (active)
- EC50 [4]: > 40 µM (inactive)
- IC50 [5]: 8.6 µM (active)
- IC50 [6]: > 40 µM (not active)
- IC50 [7]: 5.51 µM (active)

Compound: Oc1cc(N=Nc2ccc(Cl)cc2)nc(O)n1
- AC50 [8]: 2.37 µM (active)
- CC50 [9]: 14.8 µM (active)
- IC50 [10]: 21.9 µM (active)
- CC50 [11]: > 25 µM (active)
- CC50 [12]: 8.44 µM (active)
- EC50 [13]: 1.2 µM (active)

Compound: Cc1cc(C(C)(C)C)cc(C)c1CCNC(=O)c1ccc[n+]([O-])c1
- CC50 [14]: 38.3 µM (active)
- IC50 [10]: > 25 µM (active)
- IC50 [15]: 38 µM (active)

Compound: Cc1ccc(OCC(O)Cn2c(=N)n(CCN3CCCCC3)c3ccccc32)cc1 (stereo unspecified)
- EC50 [16]: > 60 µM (not active)
- IC50 [17]: 1.28 µM (active)
- CC50 [11]: 13.8 µM (active)
- IC50 [18]: 3.24 µM (active)
- EC50 [19]: 3.83 µM (active)
